Source: patent US6015814A, “Quinazoline derivative” (Zeneca Limited, priority 1995, dated 2000)

How the values were obtained:
[1] = tested on: human naso-pharyngeal cancer cell line KB; test: in vitro assay, inhibition of EGF-stimulated growth of the human naso-pharyngeal cancer cell line KB (test (b)); type: cell-based; settings: 72 h, KB cells, 3 days, approximately
Experimental: (b) An in vitro assay which determines the ability of a test compound to inhibit the EGF-stimulated growth of the human naso-pharyngeal cancer cell line KB.
KB cells were seeded into wells at a density of 1×10^4 -1.5×10^4 cells per well and grown for 24 hours in DMEM supplemented with 5% FCS (charcoal-stripped). Cell growth was determined after incubation for 3 days by the extent of metabolism of MTT tetrazolium dye to furnish a bluish colour. Cell growth was then determined in the presence of EGF (10 ng/ml) or in the presence of EGF (10 ng/ml) and a test compound at a range of concentrations. An ICSO value could then be calculated.

[2] = target: T1, EGF receptor tyrosine kinase (Homo sapiens, UniProt P00533); test: in vitro assay, inhibition of EGF receptor tyrosine kinase (test (a)); type: biochemical, human (A-431 cells, derived from human vulval carcinoma); settings: approximately
T1 construct: Receptor tyrosine kinase was obtained in partially purified form from A-431 cells; endogenous in cells; host or cells: A-431 cells (human vulval carcinoma)
T1 sequence (P00533 25-1210): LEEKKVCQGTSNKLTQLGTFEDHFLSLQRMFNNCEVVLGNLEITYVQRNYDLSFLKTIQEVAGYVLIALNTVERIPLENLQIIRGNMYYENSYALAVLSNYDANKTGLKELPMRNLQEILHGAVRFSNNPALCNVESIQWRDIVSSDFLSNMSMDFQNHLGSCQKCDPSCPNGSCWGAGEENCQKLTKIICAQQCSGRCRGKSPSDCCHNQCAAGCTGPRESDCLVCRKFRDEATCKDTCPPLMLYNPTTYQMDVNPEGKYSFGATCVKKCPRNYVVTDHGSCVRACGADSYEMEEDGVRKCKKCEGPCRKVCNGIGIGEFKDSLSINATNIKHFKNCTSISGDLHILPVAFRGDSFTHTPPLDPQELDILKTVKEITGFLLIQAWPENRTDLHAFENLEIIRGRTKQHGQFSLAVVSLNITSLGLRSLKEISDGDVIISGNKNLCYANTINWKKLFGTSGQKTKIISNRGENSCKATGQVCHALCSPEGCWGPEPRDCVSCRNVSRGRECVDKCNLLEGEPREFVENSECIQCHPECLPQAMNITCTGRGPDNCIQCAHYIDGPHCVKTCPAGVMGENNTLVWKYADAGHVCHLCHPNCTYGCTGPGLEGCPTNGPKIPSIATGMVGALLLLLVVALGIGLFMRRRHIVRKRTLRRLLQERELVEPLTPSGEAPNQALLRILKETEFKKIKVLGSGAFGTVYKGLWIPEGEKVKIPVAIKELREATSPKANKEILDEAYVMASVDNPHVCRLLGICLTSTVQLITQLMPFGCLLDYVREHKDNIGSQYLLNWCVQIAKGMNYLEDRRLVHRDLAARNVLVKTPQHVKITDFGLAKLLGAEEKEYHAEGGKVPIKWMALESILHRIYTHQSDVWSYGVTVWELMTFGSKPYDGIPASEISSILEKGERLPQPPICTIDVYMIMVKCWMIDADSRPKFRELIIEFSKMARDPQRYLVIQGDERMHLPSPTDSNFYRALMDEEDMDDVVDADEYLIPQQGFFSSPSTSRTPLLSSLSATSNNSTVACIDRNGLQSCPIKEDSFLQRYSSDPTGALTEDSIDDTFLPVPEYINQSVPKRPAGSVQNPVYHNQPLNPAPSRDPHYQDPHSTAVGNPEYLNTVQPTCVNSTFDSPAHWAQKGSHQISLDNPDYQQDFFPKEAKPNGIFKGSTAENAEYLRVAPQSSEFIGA
Experimental: (a) An in vitro assay which determines the ability of a test compound to inhibit the enzyme EGF receptor tyrosine kinase. Receptor tyrosine kinase was obtained in partially purified form from A-431 cells (derived from human vulval carcinoma) by the procedures described below which are related to those described by Carpenter et al., J. Biol. Chem., 1979. 254, 4884, Cohen et al., J. Biol. Chem., 1982, 257, 1523 and by Braun et al., J. Biol. Chem., 1984, 259, 2051.
A-431 cells were grown to confluence using Dulbecco's modified Eagle's medium (DMEM) containing 5% fetal calf serum (FCS). The obtained cells were homogenised in a hypotonic borate/EDTA buffer at pH 10.1. The homogenate was centrifuged at 400 g for 10 minutes at 0-4° C. The supernatant was centrifuged at 25,000 g for 30 minutes at 0-4° C. […]
The test compound/EGF mixture solution (5 μl) was added to the test enzyme solution (10 μl) and the mixture was incubated at 0-4° C. for 30 minutes. […] Radioactivity present in the filter paper was measured using a liquid scintillation counter (Sequence A). […]
Receptor tyrosine kinase inhibition was calculated as follows: [formula]
The extent of inhibition was then determined at a range of concentrations of test compound to give an IC50 value.

[3] = tested on: human vulval epidermoid carcinoma cell line A-431; test: in vivo assay, inhibition of growth of A-431 xenografts in athymic nude mice (test (c)); set-up: species or system human xenografts in athymic nude mice (strain ONU:Alpk); settings: daily dose of 50 mg/kg; usually oral; relative to untreated controls
Experimental: (c) An in-vivo assay in a group of athymic nude mice (strain ONU:Alpk) which determines the ability of a test compound (usually administered orally as a ball-milled suspension in 0.5% polysorbate) to inhibit the growth of xenografts of the human vulval epidermoid carcinoma cell line A-431. A-431 cells were maintained in culture in DMEM supplemented with 5% FCS and 2 mM glutamine. Freshly cultured cells were harvested by trypsinization and injected subcutaneously (10 million cells/0.1 ml/mouse) into both flanks of a number of donor nude mice. When sufficient tumour material was available (after approximately 9 to 14 days), fragments of tumour tissue were transplanted in the flanks of recipient nude mice (test day 0). Generally, on the seventh day after transplantation (test day 7) groups of 7 to 10 mice with similar-sized tumours were selected and dosing of the test compound was commenced. Once daily dosing of test compound was continued for a total of 13 days (test days 7 to 19 inclusive). In some studies the dosing of the test compound was continued beyond test day 19, for example to test day 26. In each case, on the following test day the animals were killed and the final tumour volume was calculated from measurements of the length and width of the tumours. Results were calculated as a percentage inhibition of tumour volume relative to untreated controls.

[4] = tested on: human mammary carcinoma which expresses EGF receptor tyrosine kinase; settings: athymic nude mice; cited from earlier work
[5] = tested on: another carcinoma which does not express EGF receptor tyrosine kinase; settings: cited from earlier work

SMILES	IC50 [1] [nM]	IC50 [2] [nM]	inhibition of tumour volume, test (c) [3]	growth of transplanted human mammary carcinoma [4]	growth of another carcinoma [5]
Fc1ccc(Nc2ncnc3ccc(NCCCN4CCCC4)cc23)cc1Cl [Example 1, 4-(3'-chloro-4'-fluoroanilino)-6-[3-(pyrrolidin-1-yl)propylamino]quinazoline]	~60	~76	greater than 50%	–	–
O=CN/C=C/c1cc(O)ccc1O [erbstatin]	–	–	–	specifically attenuates the growth	without effect on the growth
